For 24 molecules, TGI results are on record in PubChem BioAssay (NCI).

Molecules are shown by their SMILES.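 Cultured in 96-well plates, cells were exposed to test compound for 48 hours across five concentrations. Definition used: TGI = concentration required for complete inhibition of growth.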

Test systems include IGROV1 ovarian; SW-620 colon; LOX IMVI melanoma; NCI-H23 lung; NCI-H522 lung; A549 NSCLC; HOP-62 NSCLC; HT29 colon; SF-539 CNS; MCF7 breast.
What all share (experiment): growth of human tumour cells (NCI), 48 h

With `COC(=O)C1C=CCON2CCc3c(n(C)c4ccccc34)C12` (configuration not stated), the TGI with IGROV1 ovarian, in the experiment with SW-620 colon, in the experiment with LOX IMVI melanoma, in the experiment with NCI-H23 lung, in the experiment on NCI-H522 lung and with A549 NSCLC was > 100 µM each time. Moreover, the TGI in the experiment with HOP-62 NSCLC, in the experiment with HT29 colon and in the experiment on SF-539 CNS was > 100 µM in each case.
`Cc1c(-c2ccccc2)nn2cc(-c3ccccc3)nnc12`: the TGI with IGROV1 ovarian is > 100 µM; with SW-620 colon, 49.5 µM; in the experiment on LOX IMVI melanoma it was 41.1 µM; with NCI-H23 lung it was > 100 µM; with NCI-H522 lung, 55 µM; in the experiment with A549 NSCLC, 52.5 µM. Moreover, the TGI in the experiment on HOP-62 NSCLC and in the experiment with HT29 colon was > 100 µM in each case.
In the case of `CC1(C)C(CCO)CC1n1cc(I)c(=O)[nH]c1=O` (configuration not stated), the TGI in the experiment on SW-620 colon, in the experiment with LOX IMVI melanoma, with A549 NSCLC, in the experiment on HOP-62 NSCLC, with SF-539 CNS and in the experiment on MCF7 breast was > 100 µM each time.
Consider `COC(=O)/C(=N/Nc1cccc(Cl)c1)C(C(=O)C(=O)Nc1cccc(Cl)c1C)c1nc2ccccc2nc1C` (configuration not stated), for which the TGI with IGROV1 ovarian, in the experiment on SW-620 colon, with NCI-H23 lung, with NCI-H522 lung, in the experiment on A549 NSCLC and in the experiment on HOP-62 NSCLC was > 100 µM in each case. Besides, the TGI with HT29 colon and in the experiment on SF-539 CNS was > 100 µM each time.
Consider `COc1ccc(/C=C2\CCS(=O)(=O)c3ccccc3C2=O)cc1OC`, for which the TGI with IGROV1 ovarian was 72.1 µM; in the experiment with SW-620 colon, > 100 µM; in the experiment with LOX IMVI melanoma it was 43.8 µM; in the experiment on NCI-H23 lung it was > 100 µM; in the experiment on A549 NSCLC, > 100 µM; in the experiment on HOP-62 NSCLC, > 100 µM. In addition, the TGI with HT29 colon, in the experiment with SF-539 CNS and with MCF7 breast was > 100 µM in each case.
As to `NNc1nncc2[nH]cnc12`, the TGI with IGROV1 ovarian, in the experiment on SW-620 colon, with NCI-H23 lung, in the experiment with A549 NSCLC, in the experiment on HOP-62 NSCLC and with HT29 colon was > 100 µM each time. Besides, the TGI in the experiment with SF-539 CNS and with MCF7 breast was > 100 µM in each case.
For `O=C(CCC(=O)CC(O)(C(F)(F)F)C(F)(F)F)CC(O)(C(F)(F)F)C(F)(F)F`, the TGI with IGROV1 ovarian was > 100 µM; in the experiment with SW-620 colon, > 100 µM; in the experiment on NCI-H23 lung, 95.8 µM; in the experiment with A549 NSCLC, > 100 µM; in the experiment with HOP-62 NSCLC, > 100 µM; with HT29 colon, > 100 µM. Further, the TGI with SF-539 CNS and in the experiment on MCF7 breast was > 100 µM each time.
In the case of `O=[N+]([O-])c1ccccc1S(=O)(=O)c1ccccc1`, the TGI with IGROV1 ovarian, in the experiment on SW-620 colon, with LOX IMVI melanoma, with NCI-H23 lung, with A549 NSCLC and in the experiment with HOP-62 NSCLC was > 100 µM each time. Besides, the TGI in the experiment on HT29 colon and in the experiment on SF-539 CNS was > 100 µM throughout.
`O=S(OC12CC3CC(CC(C3)C1)C2)c1cc(Cl)cc(Cl)c1OCc1ccccc1` (configuration not stated): the TGI in the experiment on LOX IMVI melanoma was > 100 µM; with NCI-H23 lung, > 100 µM; in the experiment with NCI-H522 lung, 37.1 µM; in the experiment with HOP-62 NSCLC it was > 100 µM; with HT29 colon it was > 100 µM; with SF-539 CNS it was > 100 µM.
As to `O=c1cc(NNc2cccc(F)c2)[nH]c(=O)[nH]1`, the TGI with IGROV1 ovarian is 46.7 µM; with SW-620 colon, 34.5 µM; in the experiment with LOX IMVI melanoma, 36.9 µM; in the experiment on NCI-H23 lung, > 100 µM; in the experiment with NCI-H522 lung it was 35.3 µM; in the experiment on A549 NSCLC, > 100 µM. Moreover, the TGI in the experiment on HOP-62 NSCLC is > 100 µM; with HT29 colon, 29.9 µM; in the experiment with SF-539 CNS, > 100 µM.
For `COc1ccc2c(c1)C/C(=C\c1cccc3ccccc13)C2=O`, the TGI in the experiment with IGROV1 ovarian was > 100 µM; in the experiment with SW-620 colon, > 100 µM; in the experiment with LOX IMVI melanoma, > 100 µM; with NCI-H23 lung, 24.2 µM; in the experiment with A549 NSCLC, > 100 µM; with HT29 colon, > 100 µM. In addition, the TGI with SF-539 CNS was 44.8 µM; in the experiment with MCF7 breast it was > 100 µM.
Take `CCOC(=O)c1cc(I)c(-c2cc(C)no2)n1C`: the TGI in the experiment on SW-620 colon, in the experiment on LOX IMVI melanoma, in the experiment with NCI-H23 lung, in the experiment with NCI-H522 lung, in the experiment with A549 NSCLC and with HT29 colon was > 100 µM each time. The TGI in the experiment with SF-539 CNS is > 100 µM.
With `Cc1nc2c(o1)C(=Nc1ccccc1)c1ccccc1C2=O`, the TGI in the experiment on IGROV1 ovarian came out at 40.1 µM; in the experiment on SW-620 colon, 23.2 µM; with LOX IMVI melanoma it was 12.1 µM; with NCI-H23 lung it was 5.25 µM; in the experiment with NCI-H522 lung it was 15.8 µM; with A549 NSCLC, 38.3 µM. Also, the TGI with HOP-62 NSCLC came to 28.1 µM; in the experiment on HT29 colon, 35.9 µM; in the experiment on SF-539 CNS, 16.7 µM.
With `CCN(CC)c1ccc(N=Nc2ccc([N+](=O)[O-])cc2OC(=O)/C=C/c2ccccc2)c(OC(=O)/C=C/c2ccccc2)c1`, the TGI in the experiment on IGROV1 ovarian, in the experiment with SW-620 colon, in the experiment on LOX IMVI melanoma, in the experiment with NCI-H23 lung, with NCI-H522 lung and in the experiment on A549 NSCLC was > 100 µM in each case. Further, the TGI in the experiment with HOP-62 NSCLC is > 100 µM; in the experiment with HT29 colon it was > 100 µM; in the experiment with SF-539 CNS, > 27.9 µM.
As for `O=c1cc(-c2c[nH]c3ccccc23)[nH]c2cc3c(cc12)OCO3`, the TGI in the experiment with IGROV1 ovarian, in the experiment with SW-620 colon, in the experiment with LOX IMVI melanoma, with NCI-H23 lung, in the experiment with A549 NSCLC and in the experiment with HOP-62 NSCLC was > 100 µM in each case. The TGI in the experiment with HT29 colon and in the experiment with SF-539 CNS was > 100 µM in each case.
For the molecule `CCC/C=C1\CCC(CN(C)C)C1=O` (configuration not stated), the TGI was 34.4 µM with IGROV1 ovarian; 11.6 µM with SW-620 colon; 20.8 µM in the experiment on LOX IMVI melanoma; 32.8 µM with NCI-H23 lung; 3.87 µM with NCI-H522 lung; > 62.2 µM with A549 NSCLC. Moreover, the TGI in the experiment on HOP-62 NSCLC came out at 29.2 µM; with HT29 colon, 17.9 µM; with SF-539 CNS it was 25.3 µM.
On to `COP(=O)(OC)C(NC(=O)C(F)(F)F)(c1ccccc1)C(F)(F)F` (configuration not stated), for which the TGI with IGROV1 ovarian, with SW-620 colon, with LOX IMVI melanoma, with NCI-H23 lung, in the experiment on NCI-H522 lung and in the experiment with A549 NSCLC was > 100 µM in each case. Further, the TGI in the experiment with HOP-62 NSCLC, with HT29 colon and in the experiment on SF-539 CNS was > 100 µM in each case.
As to `O=C(NC1CCCCC1)c1cc2ccccc2cc1O`, the TGI in the experiment with IGROV1 ovarian is > 100 µM; with SW-620 colon it was > 100 µM; in the experiment on LOX IMVI melanoma, > 100 µM; in the experiment with HOP-62 NSCLC, > 100 µM; in the experiment on HT29 colon, 37 µM; with SF-539 CNS, 57.2 µM. The TGI in the experiment on MCF7 breast was > 100 µM.
On to `CCOC(=O)c1nc2ccccc2nc1Oc1ccc(C(=O)OC)cc1`, for which the TGI with IGROV1 ovarian, in the experiment with SW-620 colon, with LOX IMVI melanoma, in the experiment with A549 NSCLC, in the experiment with HOP-62 NSCLC and with HT29 colon was > 100 µM throughout. Besides, the TGI with SF-539 CNS and in the experiment with MCF7 breast was > 100 µM each time.
On to `Cc1ccc(-n2cc(-c3ccc(Cl)cc3)c3c(N/N=C4\SCC(=O)N4C)ncnc32)cc1`, for which the TGI was > 100 µM with IGROV1 ovarian; > 100 µM with SW-620 colon; > 100 µM in the experiment on LOX IMVI melanoma; 45.7 µM in the experiment with NCI-H23 lung; 26.7 µM in the experiment on NCI-H522 lung; 26.6 µM in the experiment on A549 NSCLC. For the same molecule, the TGI in the experiment on HOP-62 NSCLC was 98.8 µM; with HT29 colon it was > 100 µM; in the experiment with SF-539 CNS, 33.9 µM.
Regarding `O=c1[nH]c(=O)n(C2CC(O)C(CO)O2)cc1NN=NCCCc1ccccc1` (configuration not stated), the TGI with IGROV1 ovarian, in the experiment on LOX IMVI melanoma, in the experiment with NCI-H23 lung, with A549 NSCLC, in the experiment on HOP-62 NSCLC and with HT29 colon was > 100 µM throughout. Also, the TGI in the experiment with SF-539 CNS and in the experiment with MCF7 breast was > 100 µM in each case.
Consider `O=C1C=CC(=C(c2ccc(O)cc2)c2ccc(O)cc2)C=C1`, for which the TGI is 28 µM with IGROV1 ovarian; 25.5 µM with SW-620 colon; 22.9 µM in the experiment with LOX IMVI melanoma; 21.2 µM in the experiment on NCI-H23 lung; 21.8 µM in the experiment on NCI-H522 lung; 53.3 µM with A549 NSCLC. Further, the values for the TGI in the experiment on HOP-62 NSCLC, in the experiment on HT29 colon and with SF-539 CNS were 35.2 µM, 38.6 µM and 23.6 µM, respectively.
Turning to `CCCC(C)n1c(C)nc2c1C(=O)c1ccccc1C2=O` (configuration not stated), the TGI was > 100 µM in the experiment with IGROV1 ovarian; > 100 µM in the experiment with SW-620 colon; 23.6 µM in the experiment on LOX IMVI melanoma; 36.2 µM with NCI-H23 lung; 97 µM in the experiment with NCI-H522 lung; > 100 µM in the experiment with A549 NSCLC. In addition, the TGI was > 100 µM with HOP-62 NSCLC, > 100 µM with HT29 colon and 98 µM with SF-539 CNS.
With `COc1cc(CNc2cnc3cc(N)ccc3n2)cc(OC)c1OC`, the TGI in the experiment with IGROV1 ovarian is > 100 µM; in the experiment with SW-620 colon, > 100 µM; in the experiment on LOX IMVI melanoma it was > 100 µM; in the experiment on NCI-H23 lung it was > 100 µM; with NCI-H522 lung, 74.5 µM; in the experiment with A549 NSCLC, > 100 µM. Also, the TGI was > 100 µM in the experiment on HOP-62 NSCLC, 55.8 µM with HT29 colon and 42.4 µM in the experiment with SF-539 CNS.
